Legend:
[1] = for logP: HPLC, C 18 reversed phase, 40° C., 0.1% aqueous formic acid and acetonitrile, gradient 10% to 95% acetonitrile
Procedure: temperature: 40° C.; mobile phases: 0.1% aqueous formic acid and acetonitrile; linear gradient from 10% acetonitrile to 95% acetonitrile;
Calibration was carried out using unbranched alkan-2-ones (comprising 3 to 16 carbon atoms) with known logP values (determination of the logP values by the retention times using linear interpolation between two successive alkanones). lambda-max-values were determined using UV-spectra from 200 nm to 400 nm and the peak values of the chromatographic signals.

[2] = system: Colletotrichum lindemuthianum; assay: In vitro cell test on Colletotrichum lindemuthianum; assay type: cell-based; conditions: 144 h, 20 ppm of active ingredient, 6 days incubation, spectrometric measurement of mycelium growth, read-out: efficacy (inhibition of fungal growth)
Procedure: (§1) Example C: In Vitro Cell Test on Colletotrichum lindemuthianum Solvent: dimethyl sulfoxide Culture medium: 14.6 g anhydrous D-glucose (VWR), 7.1 g mycological peptone (Oxoid), 1.4 g granulated yeast extract (Merck), QSP 1 liter Inoculum: spore suspension The tested compounds were solubilized in dimethyl sulfoxide and the solution used to prepare the required range of concentrations. […] A spore suspension of Colletotrichum lindemuthianum was prepared and diluted to the desired spore density. Compounds were evaluated for their ability to inhibit spores germination and mycelium growth in liquid culture assay. The compounds were added in the desired concentration to the culture medium with spores. After 6 days incubation, fungi-toxicity of compounds was determined by spectrometric measurement of mycelium growth. Inhibition of fungal growth was determined by comparing the absorbance values in wells containing the compounds with the absorbance in control wells without fungicides.

[3] = system: Pyricularia oryzae; assay: microbe, parasite or virus in culture; assay type: cell-based; conditions: 120 h, read-out: efficacy (inhibition of fungal growth)
[4] = system: Alternaria alternate; assay: In vitro cell test on Alternaria alternate; assay type: cell-based; conditions: 120 h, 20 ppm of active ingredient, 5 days incubation, spectrometric measurement of mycelium growth, read-out: efficacy (inhibition of fungal growth)
Procedure: as §1, with “Example B:” for “Example C:”, “on Alternaria alternate” for “on Colletotrichum lindemuthianum”, “(Merck), […]” for “(Merck), QSP 1 liter”, “of Alternaria alternate” for “of Colletotrichum lindemuthianum”, “inhibit spore” for “inhibit spores”, “After 5” for “After 6”

Compound	logP [1]	other results
Cc1nc2ccccc2n1Cc1ccccc1[Si](C)(C)c1ccc(-c2ccccc2)cc1 [I.46]	3.18	–
C[Si](C)(c1ccc(-c2ccccc2)cc1)c1ccccc1Cn1cnc2ccccc21 [I.40]	3.39	–
C[Si](C)(c1ccccc1)c1ccccc1Cn1cnc2ccccc21 [I.01, 1-{2-[dimethyl(phenyl)silyl]benzyl}-1H-benzimidazole]	–	inhibition at 20 ppm [2]: 90 to 100%; inhibition at 20 ppm [3]: 90 to 100%; chromatographic logP [1]: 2.57; inhibition at 20 ppm [4]: 80 to 89%
Cc1cc2nc(C)n(Cc3ccccc3[Si](C)(C)c3ccc(-c4ccccc4)cc3)c2cc1C [I.53]	3.29	–
Cc1cc2ncn(Cc3ccccc3[Si](C)(C)c3ccc(-c4ccccc4)cc3)c2cc1C [I.48]	3.33	–
